# Columns and labels:
# Assay type in all cases: cell-based, human
# [1] = tested on: cortical septin structures in MV3 cells; assay: Cortical septin localization (SEPT6-GFP) in MV3 cells
# Protocol: (§1) Cells Embedded in 3D Collagen.
# Cells Grown in VitroGel Coffins. VitroGel coffins were prepared by embedding MV3 or A375 cells in VitroGel 3D or RGD at 1:1 dilution according to manufacturer's instructions (TheWell Biosciences, sku #TWG001). […] A 1:1 solution of VitroGel and VitroGel Dilution Solution was made and added to cell suspension at a ratio of 4:1 (VitroGel: cells) using gentle pipetting until well-mixed (with care taken not to form bubbles). Cell/VitroGel solution was transferred to an 8-well uncoated ibidi μ-slide (ibidi cat #80821) at 100 μl/well, spread over the bottom of wells with a pipette tip, and allowed to polymerize at room temperature for 15 minutes. The remainder of the well was then filled with 10% FBS DMEM and slide was stored at 37° C. and 5% CO2 for either 24 hrs for viability assays, 3 hrs for ERK activity assays, or 1 hour for visualization of septins/PI3K activity.
# (§2) 3D Light-Sheet Imaging. […] All images were saved in the OME-TIFF format.
# 3D Cell Image Analysis. Cell morphology and septin localization were analyzed principally via u-shape3D similar to the protocol described in Driscoll et al. Nature Methods. 16, 1037-1044 (2019), the disclosure of which is incorporated herein in its entirety. Briefly, 3D images were first deconvolved using either a Richardson-Lucy or Wiener algorithm with an experimentally measured point spread function. […] Cell surfaces were then represented as triangle meshes, and the mean surface curvature at every triangle was calculated according to methods described in Driscoll et al. Nature Methods. […] Septin and NRAS localization was measured from fluorescence images by extending a sphere of either 1 μm (for septins) or 2 μm (for NRAS) about each mesh triangle and mapping to the triangle the average intensity both within that sphere and the cell. Image intensity was not depth normalized prior to analysis, but was instead measured from the raw, undeconvolved image. […]
# Cortical septin levels were quantified by measuring the mean cytoplasmic intensity of each cell using hand-drawn ROIs that excluded nuclei (performed with the FIJI ImageJ package), and then calculating for each cell its fraction of cortical voxels (intracellular voxels within 0.96 μm of the u-Shape3D-derived surface) that were higher than that cell's mean cytoplasmic intensity (performed using a MATLAB script). NRAS enrichment at the surface was quantified by first calculating the total amount of intracellular signal expected to be within 0.96 μm of the surface if the cell's signal was homogenously distributed between all voxels, and then calculating the percent change between this value and the observed value for each cell. […]
# MV3 melanoma cells = assay: 3D cell morphology analysis (blebs, surface curvature) of MV3 cells
# Protocol: as §1, §2
# 3D Cell Image Analysis. Cell morphology and septin localization were analyzed principally via u-shape3D similar to the protocol described in Driscoll et al. Nature Methods. 16, 1037-1044 (2019), the disclosure of which is incorporated herein in its entirety. Briefly, 3D images were first deconvolved using either a Richardson-Lucy or Wiener algorithm with an experimentally measured point spread function. Cells were next segmented from the image background using u-shape3D's ‘twoLevel’ mode, which combines a straightforward Otsu threshold of the image to detect the outer cell surface with a blurred version of the image to segment the inside of the cell. The volume segmented from the blurred image was morphologically eroded to ensure the fidelity of the overall segmentation. Cell surfaces were then represented as triangle meshes, and the mean surface curvature at every triangle was calculated according to methods described in Driscoll et al. Nature Methods. 16, 1037-1044 (2019) and Elliott et al., Nat. […] To remove irregularities, the curvature was next smoothed in real space with a median filter of 1 pixel to remove infinities and then slightly diffused along the mesh. Septin and NRAS localization was measured from fluorescence images by extending a sphere of either 1 μm (for septins) or 2 μm (for NRAS) about each mesh triangle and mapping to the triangle the average intensity both within that sphere and the cell. Image intensity was not depth normalized prior to analysis, but was instead measured from the raw, undeconvolved image. […]
# Blebs were also detected according to methods similar to that described in Driscoll et al. Nature Methods. […] Distances from bleb edges were then calculated as the geodesic distance from each triangle to the nearest bleb edge. […] Bleb and septin directional correlations were calculated using spherical statistics, in particular by fitting spherical normal distributions to distributions defined at each mesh triangle.
# MV3 cells = assay: Detached/adhered viability assay, ethidium homodimer staining, MV3; conditions: for cell death: 24 hours of WGA
# Protocol: Bleb formation was inhibited using wheat germ agglutinin (WGA), a lectin that reduces plasma membrane deformability by crosslinking components of the glycocalyx. […] To investigate putative bleb function as a driver of anchorage-independent cell survival assays were designed that consistently minimized both cell-substrate and cell-cell attachment over a period of 24 hours. This was accomplished by seeding cells at very low density (approx. 250 or 100 cells/ml) in non-adherent culture dishes under constant gentle agitation. For controls, cells were grown at identical concentrations in adherent variants of the same culture dishes. Together, this generated pairs of ‘detached’ and ‘adhered’ cell populations in paired same-day experiments.
# Detached/Adhered Cell Culture. […] Drug treatments, solvent-only controls, or CellEvent caspase activity sensor were added to suspensions if appropriate to the experiment, and then immediately transferred to both an uncoated (for detached cells) and ibiTreated (for adhered cells) 8-well ibidi u-slide (ibidi cat #80821 and 80826) at 200 μl/well. Both slides were stored at 37° C. and 5% CO2 for either 24 hours (hrs) for viability assays, 3 hrs for ERK activity assays or 4 hours for caspase activation assays. Uncoated slides (detached) were nutated at 20 rpm during this time. […] For experiments using MAPKi A375 cells, Dabrafenib and Trametinib treatment was continued over the course of the experiment. […]
# Viability, ERK Activity, and Caspase ActivityCell Counting Assays. Viability, ERK activity, and caspase activity assays were analyzed using live-cell fluorescent and phase-contrast microscopy, performed on a Nikon Ti microscope equipped with an environmental chamber held at 37° C. and 5% CO2 at 20× magnification. […] Live and dead cells (as identified by significant cellular ethidium signal) were counted using the Cell Counter ImageJ plugin. For ERK activity assays, live cells carrying ERK-nKTR-GFP and H2B-mCherry were imaged after 3 hours of experimental conditions and high/low ERK activity cells were counted with Cell Counter ImageJ plugin. […]
molecule,measurement,setting,value
"O=C(Nc1ccccc1)Nc1ccnc(Cl)c1 [FCF, forchlorfenuron]",cortical septin structures,"[1]; MV3 SEPT6-GFP, FCF treatment",near-complete ablation of cortical septin structures
same,blebbiness,"MV3 melanoma cells; MV3, FCF treatment",without altering blebbiness
same,anoikis resistance (cell death adhered vs detached),"MV3 cells; MV3, 50 μM FCF, 24 hours",greatly disrupted anoikis resistance
wheat germ agglutinin [WGA],cortical septin levels (fraction of cortical voxels above mean cytoplasmic SEPT6-GFP intensity),"[1]; MV3, relative to control conditions",significantly reduced cortical septin levels
same,septin localization (cortical levels),"[1]; MV3 SEPT6-GFP, WGA (50 ug/ml), VitroGel, H1152 (1 μM), NSC668394 (10 μM)","pronounced effects on septin localization, reducing cortical levels"
same,bleb density (fraction of cell surface comprised of blebs),"MV3 melanoma cells; MV3 cells, different concentrations of WGA, morphological motif analysis",dosage dependent inhibitor of bleb density
same,mean plasma membrane curvature above K=0.4 μm-1,MV3 melanoma cells; control vs WGA-treated MV3 cells,reduced
same,cell death,MV3 cells; adhered MV3 cells,little to none
same,cell death,MV3 cells; detached MV3 cells,high levels of cell death

# Source: patent US20250268980A1, “AN ANTICANCER THERAPY TARGETING RAS AND OTHER ONCOGENIC SIGNALS BY INHIBITION OF DYNAMIC BLEBBING AND/OR SEPTINS” (THE BOARD OF REGENTS OF THE UNIVERSITY OF TEXAS SYSTEM, priority 2022, published 2025)
